Data: patent publication US6355799B1, “Substituted benzene compounds, process for their preparation, and herbicidal and defoliant compositions containing them” (ISK Americas Incorporated, priority 1997, dated 2002)

Tests used:
[1] = tested on: upland rice (Oryza sp., var. Tebonnet, RICE); test: Pre-emerge test, crop safety; assay type: in vivo; conditions: pre-emerge, 14 days after application, rating scale 0-100
Outline: (§1)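 Plants grown in 10 cm pots of sandy loam mix received acetone-dissolved compounds through a moving flat-fan nozzle. Doses ranged from 15 to 1000 g ai/ha. Pre-emerge pots were seeded one day earlier, post-emerge pots 8–21 days earlier. Fourteen days on, each pot was graded 0–100 for damage.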

[2] = tested on: field corn (Zea mays L., var. Dekalb 535, CORN); test: Pre-emerge test, crop safety; assay type: in vivo; conditions: pre-emerge, 14 days after application, rating scale 0-100
Outline: as §1

[3] = tested on: large crabgrass (Digitaria sanguinalis, DIGSA); test: Pre-emerge test, greenhouse herbicide activity screening; assay type: in vivo; conditions: pre-emerge, 14 days after application, rating scale 0-100
Outline: (§2)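 Sandy loam pots; pre-emerge: sown 1 d pre-spray, surface-watered after, then bottom-watered. Post-emerge: sown 8–21 d before, 2–3 leaf stage, + 0.25% v/v NIS, bottom-watered. Acetone, 187 l/ha track spray, 15–1000 g ai/ha. 0–100 injury score, day 14.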

[4] = tested on: velvetleaf (Abutilon theophrasti, ABUTH); test: as above; assay type: in vivo; conditions: pre-emerge, 14 days after application, rating scale 0-100
Outline: as §2

[5] = tested on: cocklebur (Xanthium strumarium, XANST); test: as above; assay type: in vivo; conditions: 14 days after application, rating scale 0-100
[6] = tested on: lambsquarters (Chenopodium album, CHEAL); test: as above; assay type: in vivo; conditions: pre-emerge, 14 days after application, rating scale 0-100
Outline: as §2

[7] = tested on: johnsongrass (Sorghum halepense, SORHA); test: as above; assay type: in vivo; conditions: pre-emerge, 14 days after application, rating scale 0-100
Outline: as §2

[8] = tested on: sicklepod (Cassia obtusifolia, CASOB); test: as above; assay type: in vivo; conditions: pre-emerge, 14 days after application, rating scale 0-100
Outline: as §2

[9] = tested on: barnyardgrass (Echinochloa crus-galli, ECHCG); test: as above; assay type: in vivo; conditions: pre-emerge, 14 days after application, rating scale 0-100
Outline: as §2

[10] = tested on: ivyleaf morningglory (Ipomoea hederacea, IPOHE); test: as above; assay type: in vivo; conditions: pre-emerge, 14 days after application, rating scale 0-100
Outline: as §2

[11] = tested on: green foxtail (Setaria viridis, SETVI); test: as above; assay type: in vivo; conditions: pre-emerge, 14 days after application, rating scale 0-100
Outline: as §2

[12] = tested on: redroot pigweed (Amaranthus retroflexus, AMARE); test: as above; assay type: in vivo; conditions: pre-emerge, 14 days after application, rating scale 0-100
Outline: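 Rating: 0–100 visual injury, 14 DAA. Application: acetone, 187 l/ha, 15–1000 g ai/ha, flat-fan track sprayer with nozzle 40–45 cm above soil or canopy. Post-emerge runs used 0.25% v/v surfactant on 2–3 leaf plants.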

## O=c1cc(C(F)(F)F)[nH]c(=O)n1-c1c(Cl)cc(C(F)(F)F)cc1Cl [compound 2, reference compound]
[1]; 3.9 g ai/ha
  phytotoxicity rating RICE: 0
[1]; 7.8 g ai/ha
  phytotoxicity rating RICE: 0
[1]; 15.6 g ai/ha
  phytotoxicity rating RICE: 0
[1]; 31.3 g ai/ha
  phytotoxicity rating RICE: 0
[1]; 62.5 g ai/ha
  phytotoxicity rating RICE: 0
[1]; 125 g ai/ha
  phytotoxicity rating RICE: 0
[1]; 250 g ai/ha
  phytotoxicity rating RICE: 15
[2]; 3.9 g ai/ha
  phytotoxicity rating MAIZE: 0
[2]; 7.8 g ai/ha
  phytotoxicity rating MAIZE: 0
[2]; 15.6 g ai/ha
  phytotoxicity rating MAIZE: 0
[2]; 31.3 g ai/ha
  phytotoxicity rating MAIZE: 0
[2]; 62.5 g ai/ha
  phytotoxicity rating MAIZE: 0
[2]; 125 g ai/ha
  phytotoxicity rating MAIZE: 0
[2]; 250 g ai/ha
  phytotoxicity rating MAIZE: 0
[3]; 3.9 g ai/ha
  phytotoxicity rating DIGSA: 0
[3]; 7.8 g ai/ha
  phytotoxicity rating DIGSA: 0
[3]; 15.6 g ai/ha
  phytotoxicity rating DIGSA: 0
[3]; 31.3 g ai/ha
  phytotoxicity rating DIGSA: 0
[3]; 62.5 g ai/ha
  phytotoxicity rating DIGSA: 0
[3]; 125 g ai/ha
  phytotoxicity rating DIGSA: 0
[3]; 250 g ai/ha
  phytotoxicity rating DIGSA: 0
[4]; 3.9 g ai/ha
  phytotoxicity rating ABUTH: 0
[4]; 7.8 g ai/ha
  phytotoxicity rating ABUTH: 0
[4]; 15.6 g ai/ha
  phytotoxicity rating ABUTH: 0
[4]; 31.3 g ai/ha
  phytotoxicity rating ABUTH: 0
[4]; 62.5 g ai/ha
  phytotoxicity rating ABUTH: 0
[4]; 125 g ai/ha
  phytotoxicity rating ABUTH: 0
[4]; 250 g ai/ha
  phytotoxicity rating ABUTH: 50
[5]; 3.9 g ai/ha
  phytotoxicity rating XANST: 0
[5]; 7.8 g ai/ha
  phytotoxicity rating XANST: 0
[5]; 15.6 g ai/ha
  phytotoxicity rating XANST: 0
[5]; 31.3 g ai/ha
  phytotoxicity rating XANST: 0
[5]; 62.5 g ai/ha
  phytotoxicity rating XANST: 0
[5]; 125 g ai/ha
  phytotoxicity rating XANST: 0
[5]; 250 g ai/ha
  phytotoxicity rating XANST: 60
[6]; 3.9 g ai/ha
  phytotoxicity rating CHEAL: 0
[6]; 7.8 g ai/ha
  phytotoxicity rating CHEAL: 0
[6]; 15.6 g ai/ha
  phytotoxicity rating CHEAL: 0
[6]; 31.3 g ai/ha
  phytotoxicity rating CHEAL: 0
[6]; 62.5 g ai/ha
  phytotoxicity rating CHEAL: 0
[6]; 125 g ai/ha
  phytotoxicity rating CHEAL: 30
[6]; 250 g ai/ha
  phytotoxicity rating CHEAL: 50
[7]; 3.9 g ai/ha
  phytotoxicity rating SORHA: 0
[7]; 7.8 g ai/ha
  phytotoxicity rating SORHA: 0
[7]; 15.6 g ai/ha
  phytotoxicity rating SORHA: 0
[7]; 31.3 g ai/ha
  phytotoxicity rating SORHA: 0
[7]; 62.5 g ai/ha
  phytotoxicity rating SORHA: 0
[7]; 125 g ai/ha
  phytotoxicity rating SORHA: 0
[7]; 250 g ai/ha
  phytotoxicity rating SORHA: 0
[8]; 3.9 g ai/ha
  phytotoxicity rating CASOB: 0
[8]; 7.8 g ai/ha
  phytotoxicity rating CASOB: 0
[8]; 15.6 g ai/ha
  phytotoxicity rating CASOB: 0
[8]; 31.3 g ai/ha
  phytotoxicity rating CASOB: 0
[8]; 62.5 g ai/ha
  phytotoxicity rating CASOB: 0
[8]; 125 g ai/ha
  phytotoxicity rating CASOB: 30
[8]; 250 g ai/ha
  phytotoxicity rating CASOB: 50
[9]; 3.9 g ai/ha
  phytotoxicity rating ECHCG: 0
[9]; 7.8 g ai/ha
  phytotoxicity rating ECHCG: 0
[9]; 15.6 g ai/ha
  phytotoxicity rating ECHCG: 0
[9]; 31.3 g ai/ha
  phytotoxicity rating ECHCG: 0
[9]; 62.5 g ai/ha
  phytotoxicity rating ECHCG: 0
[9]; 125 g ai/ha
  phytotoxicity rating ECHCG: 0
[9]; 250 g ai/ha
  phytotoxicity rating ECHCG: 0
[10]; 3.9 g ai/ha
  phytotoxicity rating IPOHE: 0
[10]; 7.8 g ai/ha
  phytotoxicity rating IPOHE: 0
[10]; 15.6 g ai/ha
  phytotoxicity rating IPOHE: 0
[10]; 31.3 g ai/ha
  phytotoxicity rating IPOHE: 0
[10]; 62.5 g ai/ha
  phytotoxicity rating IPOHE: 0
[10]; 125 g ai/ha
  phytotoxicity rating IPOHE: 0
[10]; 250 g ai/ha
  phytotoxicity rating IPOHE: 0
[11]; 3.9 g ai/ha
  phytotoxicity rating SETVI: 0
[11]; 7.8 g ai/ha
  phytotoxicity rating SETVI: 0
[11]; 15.6 g ai/ha
  phytotoxicity rating SETVI: 0
[11]; 31.3 g ai/ha
  phytotoxicity rating SETVI: 0
[11]; 62.5 g ai/ha
  phytotoxicity rating SETVI: 0
[11]; 125 g ai/ha
  phytotoxicity rating SETVI: 0
[11]; 250 g ai/ha
  phytotoxicity rating SETVI: 0
[12]; 3.9 g ai/ha
  phytotoxicity rating AMARE: 0
[12]; 7.8 g ai/ha
  phytotoxicity rating AMARE: 0
[12]; 15.6 g ai/ha
  phytotoxicity rating AMARE: 0
[12]; 31.3 g ai/ha
  phytotoxicity rating AMARE: 0
[12]; 62.5 g ai/ha
  phytotoxicity rating AMARE: 0
[12]; 125 g ai/ha
  phytotoxicity rating AMARE: 0
[12]; 250 g ai/ha
  phytotoxicity rating AMARE: 0

## COc1c(Cl)cc(F)c(-n2ncc(C(F)(F)F)cc2=O)c1N [Compound 11-4, 2-(2-amino-4-chloro-6-fluoro-3-methoxyphenyl)-5-trifluoromethylpyridazin-3-one]
other
  melting point: 156 to 157 °C
